Assay [1] concerns Aspergillus flavus. Briefly: Antifungal activity against Aspergillus flavus MTCC 277 after 2 to 3 days by agar well diffusion method. It counts as functional. In general terms: A growth-free zone around the sample is the usual read-out of agar diffusion tests.
Assay [2] deals with THP-1. As to the kind of experiment: Anti-inflammatory activity in Homo sapiens (human) THP1 cells assessed as inhibition of LPS-induced IL6 production at 10 uM incubated for 30 min prior to LPS-challenge measured after 24 hr by ELISA relative to control. It counts as functional.
Assay [3] has as its system Fusarium solani. Briefly: Antifungal activity against Fusarium solani MTCC 350 after 2 to 3 days by agar well diffusion method. Type of assay: functional.
In assay [4] the test system is Candida albicans. As to the kind of experiment: Antifungal activity against Candida albicans MTCC 227 after 2 to 3 days by agar well diffusion method. It counts as functional.
In assay [5] the test system is Salmonella typhimurium. As to the kind of experiment: Antibacterial activity against Salmonella enterica subsp. enterica serovar Typhimurium MTCC 98 after 24 hr by agar well diffusion method. Type of assay: functional. The settings on record: MTCC 98, 24 h.
The test system of assay [6] is Escherichia coli. Briefly: Antibacterial activity against Escherichia coli MTCC 443 after 24 hr by agar well diffusion method. The settings on record: MTCC 443, 24 h. Type of assay: functional.
In assay [7] the test system is THP-1. As to the kind of experiment: Anti-inflammatory activity in Homo sapiens (human) THP1 cells assessed as inhibition of LPS-induced TNFalpha production at 10 uM incubated for 30 min prior to LPS-challenge measured after 24 hr by ELISA relative to control. Type of assay: functional. For orientation: In an ELISA, binding on a coated surface is turned into a signal by an enzyme label.

Assay [8] deals with Bacillus subtilis. As to the kind of experiment: Antibacterial activity against Bacillus subtilis MTCC 441 after 24 hr by agar well diffusion method. The settings on record: MTCC 441, 24 h. Type of assay: functional.
The test system of assay [9] is Staphylococcus aureus. As to the kind of experiment: Antibacterial activity against Staphylococcus aureus MTCC 96 after 24 hr by agar well diffusion method. The settings on record: MTCC 96, 24 h. It counts as functional.
In assay [10] the test system is Aspergillus niger. Briefly: Antifungal activity against Aspergillus niger MTCC 281 after 2 to 3 days by agar well diffusion method. It counts as functional.
Assay [11] relates to Salmonella typhimurium. Briefly: Antibacterial activity against Salmonella enterica subsp. enterica serovar Typhimurium MTCC 98 up to 200 ug/ml after 24 hr by agar well diffusion method. Type of assay: functional, organism-based.
For assay [12], the system named is Escherichia coli. As to the kind of experiment: Antibacterial activity against Escherichia coli MTCC 443 up to 200 ug/ml after 24 hr by agar well diffusion method. It counts as functional, organism-based.
Assay [13] has as its system Bacillus subtilis. As to the kind of experiment: Antibacterial activity against Bacillus subtilis MTCC 441 up to 200 ug/ml after 24 hr by agar well diffusion method. Type of assay: functional, organism-based.
Assay [14] deals with Staphylococcus aureus. As to the kind of experiment: Antibacterial activity against Staphylococcus aureus MTCC 96 up to 200 ug/ml after 24 hr by agar well diffusion method. It counts as functional, organism-based.
Assay [15] concerns Aspergillus niger. As to the kind of experiment: Antifungal activity against Aspergillus niger MTCC 281 up to 200 ug/ml after 2 to 3 days by agar well diffusion method. Type of assay: functional, organism-based.
In assay [16] the test system is Fusarium solani. Briefly: Antifungal activity against Fusarium solani MTCC 350 up to 200 ug/ml after 2 to 3 days by agar well diffusion method. It counts as functional, organism-based.
Assay [17] has as its system Aspergillus flavus. As to the kind of experiment: Antifungal activity against Aspergillus flavus MTCC 277 up to 200 ug/ml after 2 to 3 days by agar well diffusion method. It counts as functional, organism-based.
Assay [18] relates to THP-1. Briefly: Anti-inflammatory activity in Homo sapiens (human) THP1 cells assessed as inhibition of LPS-induced TNFalpha production at 1 uM incubated for 30 min prior to LPS-challenge measured after 24 hr by ELISA relative to control. It counts as functional.
Assay [19] has as its system THP-1. As to the kind of experiment: Anti-inflammatory activity in Homo sapiens (human) THP1 cells assessed as inhibition of LPS-induced IL6 production at 1 uM incubated for 30 min prior to LPS-challenge measured after 24 hr by ELISA relative to control. It counts as functional.
Assay [20] has as its system Candida albicans. Briefly: Ratio of miconazole MIC to compound MIC for Candida albicans MTCC 227. Type of assay: functional.
The test system of assay [21] is Aspergillus flavus. Briefly: Ratio of miconazole MIC to compound MIC for Aspergillus flavus MTCC 277. It counts as functional.
Assay [22] deals with Candida albicans. As to the kind of experiment: Antifungal activity against Candida albicans MTCC 227 up to 200 ug/ml after 2 to 3 days by agar well diffusion method. Type of assay: functional, organism-based.

≈ marks a conversion by molar mass, not a printed value. Calls of active or inactive are those of the source.

The MIC is the smallest concentration in the dilution series that meets the test's criterion for growth inhibition. The term inhibition denotes how much of the control response was suppressed. For the molecule `Cc1ccc(NC(=O)NCCNc2ccnc3c(F)cc(F)cc23)cc1C`, the MIC came out at 30 µg/mL (≈ 81 µM) in [1]; 20 µg/mL (≈ 54 µM) in assay [3]; 25 µg/mL (≈ 67.5 µM) in assay [4]; 35 µg/mL (≈ 94.5 µM) in assay [5]; 40 µg/mL (≈ 108 µM) in assay [6]; 30 µg/mL (≈ 81 µM) in assay [8]. In addition, the values for the MIC in [9] and in [10] were 40 µg/mL (≈ 108 µM) and 35 µg/mL (≈ 94.5 µM), respectively. For the same molecule, the inhibition at 10 µM in assay [2] was determined as 16%; in [7], 11%.

Turning to `O=C(NCCNc1ccnc2c(F)cc(F)cc12)Nc1cccc(Cl)c1F`, in assay [11], the result was inactive. Also, the MIC in [1] was 30 µg/mL (≈ 76 µM); in assay [3], 60 µg/mL (≈ 152 µM); in assay [4], 40 µg/mL (≈ 101 µM); in assay [8], 90 µg/mL (≈ 228 µM); in [9], 90 µg/mL (≈ 228 µM); in assay [10], 75 µg/mL (≈ 190 µM). For the same molecule, the inhibition at 10 µM came to 27% in [2] and 16% in assay [7].

For the molecule `O=C(NCCNc1ccnc2c(F)cc(F)cc12)Nc1ccccc1OC(F)(F)F`, the outcome in [11], in [12], in [13] and in assay [14] was inactive. Further, the MIC in assay [1] came to 80 µg/mL (≈ 188 µM); in assay [3] it was 90 µg/mL (≈ 211 µM); in assay [4], 80 µg/mL (≈ 188 µM); in assay [10], 80 µg/mL (≈ 188 µM). The inhibition at 10 µM was determined as 96% in assay [2] and 78% in assay [7].

Regarding `Clc1ccc(COC(Cn2ccnc2)c2ccc(Cl)cc2Cl)c(Cl)c1` (stereo unspecified) [MICONAZOLE], the MIC in assay [1] amounted to 20 µg/mL (≈ 48.1 µM); in assay [3] it was 15 µg/mL (≈ 36 µM); in assay [4], 20 µg/mL (≈ 48.1 µM); in assay [10], 15 µg/mL (≈ 36 µM).

As for `O=C(NCCNc1ccnc2c(F)cc(F)cc12)Nc1ccc(C(F)(F)F)cc1`, the MIC in [1], in [3], in assay [4], in assay [5], in [6] and in [8] was 90 µg/mL (≈ 219 µM) in each case. The same molecule showed an MIC in [9] of 75 µg/mL (≈ 183 µM). Also, the inhibition at 10 µM is 35% in assay [2] and 23% in assay [7]. In addition, in [15], the result was inactive.

For the molecule `Fc1cc(F)c2nccc(Cl)c2c1` [4-CHLORO-6,8-DIFLUOROQUINOLINE], the result in [11], in assay [12], in assay [13], in [16] and in assay [14] was inactive. The MIC in [1], in [4] and in [10] was 90 µg/mL (≈ 451 µM) throughout. In addition, the inhibition at 10 µM in [2] and in [7] was 0% each time.

`O=C(NCCNc1ccnc2c(F)cc(F)cc12)Nc1ccccc1C(F)(F)F`: the MIC is 25 µg/mL (≈ 60.9 µM) in assay [1]; 20 µg/mL (≈ 48.7 µM) in [3]; 15 µg/mL (≈ 36.6 µM) in assay [4]; 15 µg/mL (≈ 36.6 µM) in assay [5]; 10 µg/mL (≈ 24.4 µM) in assay [6]; 10 µg/mL (≈ 24.4 µM) in assay [8]. Also, the MIC in assay [9] was 15 µg/mL (≈ 36.6 µM); in assay [10], 10 µg/mL (≈ 24.4 µM). Besides, the inhibition at 10 µM in [2] stood at 90%; in [7] it was 71%.

On to `O=C(O)c1cn(C2CC2)c2cc(N3CCNCC3)c(F)cc2c1=O` [CIPROFLOXACIN], for which the MIC amounted to 20 µg/mL (≈ 60.4 µM) in assay [5], 15 µg/mL (≈ 45.3 µM) in assay [6], 15 µg/mL (≈ 45.3 µM) in assay [8] and 20 µg/mL (≈ 60.4 µM) in assay [9].

For `Cc1ccc(F)cc1NC(=O)NCCNc1ccnc2c(F)cc(F)cc12`, the MIC in assay [1] amounted to 20 µg/mL (≈ 53.4 µM); in [3], 20 µg/mL (≈ 53.4 µM); in assay [4], 25 µg/mL (≈ 66.8 µM); in [5], 30 µg/mL (≈ 80.1 µM); in [6] it was 25 µg/mL (≈ 66.8 µM); in assay [8], 20 µg/mL (≈ 53.4 µM). Moreover, the MIC was 25 µg/mL (≈ 66.8 µM) in [9] and 30 µg/mL (≈ 80.1 µM) in assay [10]. Moreover, the inhibition at 10 µM in assay [2] was determined as 40%; in assay [7], 28%.

As to `O=c1cc[nH]c2c(F)cc(F)cc12` [6,8-DIFLUOROQUINOLIN-4(1H)-ONE], the outcome in assay [11], in assay [12], in [17], in [15], in [13] and in assay [16] was inactive. Also, in assay [14], the result was inactive. For the same molecule, the inhibition at 10 µM in assay [2] and in assay [7] was 0% in each case. The molecule further came in with an MIC in [4] of 90 µg/mL (≈ 497 µM).

Turning to `C[C@@H]1C[C@H]2[C@@H]3CCC4=CC(=O)C=C[C@]4(C)[C@@]3(F)[C@@H](O)C[C@]2(C)[C@@]1(O)C(=O)CO` [DEXAMETHASONE], the inhibition at 1 µM in assay [18] amounted to 72%; in assay [19], 86%.

In the case of `CC(C)c1ccc(NC(=O)NCCNc2ccnc3c(F)cc(F)cc23)cc1`, the MIC in assay [1] was 40 µg/mL (≈ 104 µM); in assay [3] it was 50 µg/mL (≈ 130 µM); in assay [4] it was 45 µg/mL (≈ 117 µM); in assay [5], 30 µg/mL (≈ 78 µM); in assay [6] it was 40 µg/mL (≈ 104 µM); in [8] it was 35 µg/mL (≈ 91 µM). Moreover, the results for the MIC in [9] and in assay [10] were 40 µg/mL (≈ 104 µM) and 35 µg/mL (≈ 91 µM), respectively. Besides, the inhibition at 10 µM worked out at 82% in assay [2] and 68% in assay [7].

In the case of `O=C(NCCNc1ccnc2c(F)cc(F)cc12)Nc1ccccc1F`, the Ratio in [20] and in assay [21] was 1.3 each time. The minimal inhibitory concentration (MIC) in assay [1] was found to be 15 µg/mL (≈ 41.6 µM); in assay [3] it was 20 µg/mL (≈ 55.5 µM); in assay [4], 15 µg/mL (≈ 41.6 µM); in assay [5], 20 µg/mL (≈ 55.5 µM); in assay [6], 15 µg/mL (≈ 41.6 µM); in assay [8] it was 20 µg/mL (≈ 55.5 µM). The MIC in assay [9] and in assay [10] was 20 µg/mL (≈ 55.5 µM) each time. The inhibition at 10 µM in assay [2] was determined as 18%; in assay [7] it was 11%.

In the case of `NCCNc1ccnc2c(F)cc(F)cc12`, the result in assay [11], in [12], in assay [17], in [15], in [13] and in [16] was inactive. In addition, the outcome in [22] and in assay [14] was inactive. The inhibition at 10 µM in [2] and in [7] was 0% each time.

As to `O=C(NCCNc1ccnc2c(F)cc(F)cc12)Nc1ccc(OC(F)(F)F)cc1`, the outcome in [11], in assay [12], in assay [17], in assay [15], in [13] and in [16] was inactive. Further, the inhibition at 10 µM in assay [2] stood at 28%; in [7], 16%. For the same molecule, the MIC in assay [4] and in [9] was 90 µg/mL (≈ 211 µM) each time.

For `O=C(NCCNc1ccnc2c(F)cc(F)cc12)Nc1cc(C(F)(F)F)ccc1Cl`, the MIC is 20 µg/mL (≈ 45 µM) in assay [1]; 20 µg/mL (≈ 45 µM) in assay [3]; 20 µg/mL (≈ 45 µM) in assay [4]; 15 µg/mL (≈ 33.7 µM) in assay [5]; 20 µg/mL (≈ 45 µM) in assay [6]; 25 µg/mL (≈ 56.2 µM) in assay [8]. In addition, the MIC in [9] was 25 µg/mL (≈ 56.2 µM); in assay [10], 15 µg/mL (≈ 33.7 µM). The values for the inhibition at 10 µM in assay [2] and in assay [7] were 80% and 61%, respectively.

These data come from ChEMBL document CHEMBL3046943, “Synthesis, anti-inflammatory and antimicrobial evaluation of novel N1-(quinolin-4yl)ethane-1,2-diamine phenyl urea derivatives” (2013).
